# Reference: patent US20090029953A1, “18-METHYL-19-NOR-17-PREGN-4-ENE-21,17-CARBOLACTONES, AS WELL AS PHARMACEUTICAL PREPARATIONS THAT CONTAIN THE LATTER” (priority 2004, published 2009)
# Tested on: ovariectomized pregnant rats
# Assay: pregnancy maintenance test in rats
# Assay type: in vivo
# Conditions: subcutaneous once daily from day 8 of pregnancy, with estrone 5 μg/kg/day
# Description: Executing the Pregnancy Maintenance Test in Rats:
# In pregnant rats, removal of the corpora lutea or castration induces abortion. By exogenous supplying of progestins (gestagens) in combination with a suitable dose of estrogen, pregnancy can be maintained. The pregnancy maintenance test in ovariectomized rats serves to determine peripheral gestagenic activity of a compound.
# Rats are paired up during the proestrus overnight. Mating is monitored on the morning of the following day by vaginal smear inspection. The presence of sperm is considered in this case as day 1 of the beginning of pregnancy. On day 8 of pregnancy, the animals are ovariectomized under ether anesthesia. […]
# At the end of the test (day 15 or day 21), the animals are sacrificed under CO2 atmosphere, and live fetuses (fetuses with beating hearts) and implantation sites (early resorptions and dead fetuses including autolysis and atrophic placentas) in both uterine horns are counted. […] In uteri without fetuses or implantation sites, the number of nidation sites is determined by staining with 10% ammonium sulfide solution. The pregnancy maintenance rate is calculated as the quotient of the number of living fetuses and the total number of nidation sites (both resorbed and dead fetuses as well as nidation sites). […]
row,SMILES,pregnancy-maintaining dose (ED50) [µg/kg/day]
1,"CCC12CCC3C4CCC(=O)C=C4C4CC4C3C1C1CC1C21CCC(=O)O1 (stereo not drawn) [compound 3a, 18-Methyl-6α,7α-15β,16β-dimethylene-3-oxo-19-nor-17-pregn-4-ene-21,17-carbolactone]",120
2,"C[C@]12CCC(=O)C=C1[C@@H]1C[C@@H]1[C@H]1[C@@H]3[C@@H]4C[C@@H]4[C@@]4(CCC(=O)O4)[C@@]3(C)CC[C@@H]12 [drospirenone, 6β,7β-15β,16β-dimethylene-3-oxo-17-pregn-4-ene-21,17β-carbolactone]",3500
